The source of these data is patent US5108754A, “Orthomolecular method of treating sickle cell disease” (priority 1991, dated 1992).

Values joined by “and” are separate entries in the source; they are usually repeats but may differ in a detail not shown here. Equal entries are not always repeated.

One series deals with rats. The procedure:
The compound prepared according to Example 1 was subjected to a toxicity study in accordance with techniques well-known in the art. The study was conducted on rats over a three-day testing period.

For series [1] the following is noted: prior-art antisickling agent; cited from earlier work.
[2] abbreviates: second day, 0.01% dosage, individual rats #A-#D, listed as active agent.

Take `Cc1c(C)c2c(c(C)c1OC(=O)C(N)CC[S+](C)CC1OC(n3cnc4c(N)ncnc43)C(O)C1O)CCC(C)(CCCC(C)CCCC(C)CCCC(C)C)O2.[I-]` (stereo not drawn) [Example 1, α-(S-adenosylmethionine)-O-tocopherol]: the “rats killed after administration of the drug formulation” value with rats (rats, three days, 0.001%, 0.01%, 0.1% of rat weight on days 1, 2, 3) is “none of the rats tested were killed”. Besides, the toxicity result in the series with rats (rats, three-day study, 0.001%, 0.01%, 0.1% of rat weight) is “substantially non-toxic”. Besides, in the series with rats (setting [2]), the “Body Fluid Concentraton 0.01%” value is 0.14 and 0.07; the “Weight After” value is 28.5 grams and 26.4 grams and 29.5 grams; the “Weight Before” value is 28.3 grams and 26.3 grams and 29.4 grams; the “Weight Change” value was 0.2 grams and 0.1 grams.

Consider `N#CO` [potassium cyanate], for which the toxicity entry in series [1] is recorded as “rather high toxicity”.
